{
  "source": "paper doi:10.1101/2024.08.19.608619",
  "about": "“Discovery of potent SARS-CoV-2 nsp3 macrodomain inhibitors uncovers lack of translation to cellular antiviral response” (bioRxiv, 2024)",
  "key": {"[1]": {"experiment": "In vitro human hepatocyte stability", "type": "in vitro ADME", "description": "(§1) Supplement media-1.zip/Hepatocyte_Stability.csv, table | column: clint; t_half"}, "[2]": {"tested_on": "Ca2+ channel (L, dihydropyridine site)", "experiment": "In vitro CEREP profiling, Ca2+ channel (L, dihydropyridine site) (antagonist radioligand)", "type": "binding", "conditions": "test compound concentration 10 uM", "description": "(§2) Supplement media-1.zip/Safety_Panel_Profile.csv, table | column: perc_inhibition"}, "MAO-A": {"target": "T1, MAO-A (Rattus norvegicus, UniProt P21396)", "T1 construct": "purchased Eurofins Cerep (SafetyScreen44), recognised from the panel format", "T1 sequence (P21396 1-526)": "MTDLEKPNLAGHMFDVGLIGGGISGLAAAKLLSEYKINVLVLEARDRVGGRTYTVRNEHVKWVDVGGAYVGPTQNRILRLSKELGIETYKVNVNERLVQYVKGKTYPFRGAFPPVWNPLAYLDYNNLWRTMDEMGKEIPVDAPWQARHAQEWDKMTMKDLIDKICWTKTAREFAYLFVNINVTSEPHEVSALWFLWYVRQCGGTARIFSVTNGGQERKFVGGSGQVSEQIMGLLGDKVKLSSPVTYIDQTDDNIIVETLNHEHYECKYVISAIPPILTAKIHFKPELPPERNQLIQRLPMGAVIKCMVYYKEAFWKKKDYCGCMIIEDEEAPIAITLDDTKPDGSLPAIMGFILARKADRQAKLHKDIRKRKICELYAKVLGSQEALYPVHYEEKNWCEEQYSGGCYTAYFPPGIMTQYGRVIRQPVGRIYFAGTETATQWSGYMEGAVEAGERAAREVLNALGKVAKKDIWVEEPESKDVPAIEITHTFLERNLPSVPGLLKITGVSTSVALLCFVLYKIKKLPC", "experiment": "In vitro CEREP profiling, MAO-A (antagonist radioligand)", "type": "binding", "conditions": "test compound concentration 10 uM, read-out: perc_inhibition (% inhibition of the binding of a ligand specific for each target)", "description": "as §2"}, "mu (MOP) (h)": {"target": "T2, mu (MOP) (h) (Homo sapiens, UniProt P35372)", "T2 construct": "purchased Eurofins Cerep (SafetyScreen44), recognised from the panel format", "T2 sequence (P35372 whole entry)": "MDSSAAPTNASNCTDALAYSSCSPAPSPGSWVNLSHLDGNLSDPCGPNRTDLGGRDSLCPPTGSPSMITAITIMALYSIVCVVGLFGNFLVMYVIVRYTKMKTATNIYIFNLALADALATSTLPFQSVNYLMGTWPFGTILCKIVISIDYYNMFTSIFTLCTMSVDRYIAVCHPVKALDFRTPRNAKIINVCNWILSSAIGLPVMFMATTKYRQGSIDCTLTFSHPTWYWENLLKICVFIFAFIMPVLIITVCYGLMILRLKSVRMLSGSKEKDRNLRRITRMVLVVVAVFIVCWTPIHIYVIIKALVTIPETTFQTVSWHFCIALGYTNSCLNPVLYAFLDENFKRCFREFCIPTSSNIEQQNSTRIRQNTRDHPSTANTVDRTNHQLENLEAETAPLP", "experiment": "In vitro CEREP profiling, mu (MOP) (h) (agonist radioligand)", "type": "binding", "conditions": "test compound concentration 10 uM, read-out: perc_inhibition (% inhibition of the binding of a ligand specific for each target)", "description": "as §2"}, "PDE4D2 (h)": {"target": "T3, PDE4D2 (h) (Homo sapiens, UniProt Q08499)", "T3 construct": "purchased Eurofins Cerep (SafetyScreen44), recognised from the panel format", "T3 sequence (Q08499 303-809)": "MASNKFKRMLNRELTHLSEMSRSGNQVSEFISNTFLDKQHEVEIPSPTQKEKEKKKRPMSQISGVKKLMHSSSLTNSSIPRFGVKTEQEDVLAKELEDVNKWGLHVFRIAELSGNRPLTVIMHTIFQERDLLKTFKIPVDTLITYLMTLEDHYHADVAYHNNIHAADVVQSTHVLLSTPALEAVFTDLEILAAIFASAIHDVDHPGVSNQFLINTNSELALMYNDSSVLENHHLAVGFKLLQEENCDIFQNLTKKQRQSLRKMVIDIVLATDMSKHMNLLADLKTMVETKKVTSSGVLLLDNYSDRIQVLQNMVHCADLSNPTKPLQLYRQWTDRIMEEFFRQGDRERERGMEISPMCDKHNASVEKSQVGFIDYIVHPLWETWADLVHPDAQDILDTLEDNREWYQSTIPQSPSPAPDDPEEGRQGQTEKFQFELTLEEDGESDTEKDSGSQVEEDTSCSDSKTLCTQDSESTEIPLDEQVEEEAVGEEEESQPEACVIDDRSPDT", "experiment": "In vitro CEREP profiling, PDE4D2 (h)", "type": "biochemical", "conditions": "test compound concentration 10 uM; Enzyme and Cell-based assays; read-out: perc_inhibition: % inhibition of control enzyme activity, PDE4D2 (h)", "description": "as §2"}, "[3]": {"experiment": "In vitro mouse hepatocyte stability", "type": "in vitro ADME", "description": "as §1"}, "H1 (h)": {"target": "T4, H1 (h) (Homo sapiens, UniProt P35367)", "T4 construct": "purchased Eurofins Cerep (SafetyScreen44), recognised from the panel format", "T4 sequence (P35367 whole entry)": "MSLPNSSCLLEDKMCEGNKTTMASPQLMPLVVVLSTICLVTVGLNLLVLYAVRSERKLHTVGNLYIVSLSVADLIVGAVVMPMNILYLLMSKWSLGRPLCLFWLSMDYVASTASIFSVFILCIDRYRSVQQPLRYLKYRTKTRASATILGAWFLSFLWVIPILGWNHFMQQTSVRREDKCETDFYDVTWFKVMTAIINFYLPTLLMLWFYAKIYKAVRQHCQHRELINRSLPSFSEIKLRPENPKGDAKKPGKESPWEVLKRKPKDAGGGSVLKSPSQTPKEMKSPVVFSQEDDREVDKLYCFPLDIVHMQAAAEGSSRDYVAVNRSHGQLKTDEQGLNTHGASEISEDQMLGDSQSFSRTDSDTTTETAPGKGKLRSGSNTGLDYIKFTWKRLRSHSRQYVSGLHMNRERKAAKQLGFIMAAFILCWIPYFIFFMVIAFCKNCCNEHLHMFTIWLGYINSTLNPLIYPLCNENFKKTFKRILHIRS", "experiment": "In vitro CEREP profiling, H1 (h) (antagonist radioligand)", "type": "binding", "conditions": "test compound concentration 10 uM, read-out: perc_inhibition (% inhibition of the binding of a ligand specific for each target)", "description": "as §2"}, "AR(h)": {"tested_on": "AR(h)", "experiment": "In vitro CEREP profiling, AR(h) (agonist radioligand)", "type": "binding, human", "conditions": "test compound concentration 10 uM", "description": "as §2"}, "Protein binding": {"experiment": "Protein binding", "type": "in vitro ADME", "description": "Supplement media-1.zip/Protein_Binding.csv, table | column: fu; perc_bound; perc_free; perc_recovered"}, "[4]": {"experiment": "In vitro dog liver microsomal stability", "type": "in vitro ADME", "description": "Supplement media-1.zip/Hepatic_Microsomal_Stability.csv, table | column: clint; t_half"}, "ETA (h)": {"target": "T5, ETA (h) (Homo sapiens, UniProt P25101)", "T5 construct": "purchased Eurofins Cerep (SafetyScreen44), recognised from the panel format", "T5 sequence (P25101 21-427)": "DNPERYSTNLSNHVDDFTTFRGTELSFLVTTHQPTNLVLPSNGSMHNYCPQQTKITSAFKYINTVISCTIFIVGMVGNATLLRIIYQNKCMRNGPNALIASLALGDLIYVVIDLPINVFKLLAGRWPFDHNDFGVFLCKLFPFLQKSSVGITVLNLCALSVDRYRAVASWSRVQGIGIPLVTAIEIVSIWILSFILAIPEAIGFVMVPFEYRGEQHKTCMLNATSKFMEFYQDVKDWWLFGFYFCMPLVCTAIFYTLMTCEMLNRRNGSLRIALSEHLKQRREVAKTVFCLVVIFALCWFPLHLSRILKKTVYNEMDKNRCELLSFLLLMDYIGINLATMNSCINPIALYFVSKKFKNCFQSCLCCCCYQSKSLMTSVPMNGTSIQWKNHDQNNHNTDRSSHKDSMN", "experiment": "In vitro CEREP profiling, ETA (h) (agonist radioligand)", "type": "binding", "conditions": "test compound 10 uM, read-out: perc_inhibition (% inhibition of the binding of a ligand specific for each target)", "description": "as §2"}, "[5]": {"experiment": "Hepatic microsomal stability, HLM", "type": "in vitro ADME, human"}, "V1a (h)": {"target": "T6, V1a (h) (Homo sapiens, UniProt P37288)", "T6 construct": "purchased Eurofins Cerep (SafetyScreen44), recognised from the panel format", "T6 sequence (P37288 whole entry)": "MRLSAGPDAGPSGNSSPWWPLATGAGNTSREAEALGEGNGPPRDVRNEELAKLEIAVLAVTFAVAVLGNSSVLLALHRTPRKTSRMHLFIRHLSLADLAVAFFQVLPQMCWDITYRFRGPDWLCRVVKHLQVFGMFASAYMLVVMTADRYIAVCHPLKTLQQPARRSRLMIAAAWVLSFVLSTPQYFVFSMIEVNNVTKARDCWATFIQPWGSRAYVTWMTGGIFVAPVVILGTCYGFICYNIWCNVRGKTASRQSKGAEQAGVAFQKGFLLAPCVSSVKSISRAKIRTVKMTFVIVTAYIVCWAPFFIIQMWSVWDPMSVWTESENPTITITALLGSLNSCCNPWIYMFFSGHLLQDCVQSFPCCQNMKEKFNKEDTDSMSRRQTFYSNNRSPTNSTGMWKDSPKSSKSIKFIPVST", "experiment": "In vitro CEREP profiling, V1a (h) (agonist radioligand)", "type": "binding", "conditions": "test compound concentration 10 uM, read-out: perc_inhibition, % inhibition of the binding of a ligand specific for each target", "description": "as §2"}, "[6]": {"target": "T7, norepinephrine transporter (h) (Homo sapiens, UniProt P23975)", "T7 construct": "purchased Eurofins Cerep (SafetyScreen44), recognised from the panel format", "T7 sequence (P23975 whole entry)": "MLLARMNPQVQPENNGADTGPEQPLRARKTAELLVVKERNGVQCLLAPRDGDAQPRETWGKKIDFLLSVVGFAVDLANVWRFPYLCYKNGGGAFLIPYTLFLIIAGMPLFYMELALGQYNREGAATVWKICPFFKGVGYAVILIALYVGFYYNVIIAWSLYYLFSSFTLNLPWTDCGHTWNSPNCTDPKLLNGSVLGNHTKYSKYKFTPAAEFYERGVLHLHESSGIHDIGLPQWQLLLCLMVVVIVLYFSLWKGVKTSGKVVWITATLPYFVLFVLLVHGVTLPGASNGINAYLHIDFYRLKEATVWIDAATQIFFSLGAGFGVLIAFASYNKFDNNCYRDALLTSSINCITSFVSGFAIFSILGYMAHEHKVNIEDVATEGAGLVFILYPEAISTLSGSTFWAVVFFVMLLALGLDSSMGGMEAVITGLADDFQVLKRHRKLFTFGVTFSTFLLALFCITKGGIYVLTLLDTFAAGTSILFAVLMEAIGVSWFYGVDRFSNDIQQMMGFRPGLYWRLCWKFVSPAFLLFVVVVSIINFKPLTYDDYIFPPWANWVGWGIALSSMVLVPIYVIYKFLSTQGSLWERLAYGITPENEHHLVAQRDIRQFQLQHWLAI", "experiment": "In vitro CEREP profiling, norepinephrine transporter (h) (antagonist radioligand)", "type": "binding", "conditions": "test compound concentration 10 uM, read-out: perc_inhibition, % inhibition of the binding of a ligand specific for each target", "description": "as §2"}, "MERS-CoV": {"tested_on": "MERS-CoV", "experiment": "microbe, parasite or virus in culture", "type": "cell-based"}, "NMDA": {"tested_on": "NMDA", "experiment": "In vitro CEREP profiling, NMDA (antagonist radioligand)", "type": "binding", "conditions": "test compound concentration 10 uM", "description": "as §2"}, "KV channel": {"tested_on": "KV channel", "experiment": "In vitro CEREP profiling, KV channel (antagonist radioligand)", "type": "binding", "conditions": "test compound concentration 10 uM", "description": "as §2"}, "[7]": {"conditions": "In vitro dog plasma protein binding"}, "[8]": {"conditions": "In vitro fetal calf serum protein binding"}, "[9]": {"conditions": "In vitro human plasma protein binding"}, "[10]": {"conditions": "In vitro mouse plasma protein binding"}, "[11]": {"conditions": "In vitro rat plasma protein binding"}, "[12]": {"conditions": "In vitro human liver microsomal stability"}, "[13]": {"conditions": "Middle East respiratory syndrome-related coronavirus, VeroE6/TMPRSS2"}},
  "note": "pEC50: −log10 of the molar value. Where “and” joins values, the source holds several entries; their conditions need not be identical. Equal values may be shown once.",
  "data": [
    {"smiles": "CC(C)C(Nc1ncnc2[nH]c(C(=O)NC3CCN(C)C3)cc12)c1ccc2c(c1)S(=O)(=O)CCC2", "note": "(stereo not drawn) [ASAP-0011198]", "values": [
      {"measurement": "t_half", "setting": "[1]", "result": "> 231.0", "unit": "min"},
      {"measurement": "hepatocyte CLint", "setting": "[1]; hepatocytes", "result": "< 3", "unit": "µL/min/1e6 cells"},
      {"measurement": "perc_inhibition (% inhibition of the binding of a ligand specific for each target)", "setting": "[2]", "result": -6, "unit": "%"},
      {"measurement": "inhibition at 10 µM", "setting": "MAO-A", "result": 3, "unit": "%"},
      {"measurement": "inhibition at 10 µM", "setting": "mu (MOP) (h)", "result": 7, "unit": "%"},
      {"measurement": "inhibition at 10 µM", "setting": "PDE4D2 (h)", "result": 37, "unit": "%"},
      {"measurement": "clint", "setting": "[3]", "result": 61.0, "unit": "uL/min/1E6 cells"},
      {"measurement": "t_half", "setting": "[3]", "result": "10.1 min and 11.4 min"},
      {"measurement": "hepatocyte CLint", "setting": "[3]; mouse, hepatocytes", "result": 68.4, "unit": "µL/min/1e6 cells"},
      {"measurement": "inhibition at 10 µM", "setting": "H1 (h)", "result": 2, "unit": "%"},
      {"measurement": "perc_inhibition (% inhibition of the binding of a ligand specific for each target)", "setting": "AR(h)", "result": -5, "unit": "%"},
      {"measurement": "perc_bound", "setting": "Protein binding; [7]", "result": 83.5, "unit": "%"},
      {"measurement": "perc_free", "setting": "Protein binding; [7]", "result": 16.5, "unit": "%"},
      {"measurement": "perc_recovered", "setting": "Protein binding; [7]", "result": 87.93, "unit": "%"},
      {"measurement": "fu", "setting": "Protein binding; [8]", "result": 0.173},
      {"measurement": "perc_bound", "setting": "Protein binding; [8]", "result": "86.0% and 82.7%"},
      {"measurement": "perc_free", "setting": "Protein binding; [8]", "result": "14.0% and 17.3%"},
      {"measurement": "perc_recovered", "setting": "Protein binding; [8]", "result": "61.17% and 107.7%"},
      {"measurement": "fu", "setting": "Protein binding; [9]", "result": 0.271},
      {"measurement": "perc_bound", "setting": "Protein binding; [9]", "result": "74.5% and 72.9%"},
      {"measurement": "perc_free", "setting": "Protein binding; [9]", "result": "25.5% and 27.1%"},
      {"measurement": "perc_recovered", "setting": "Protein binding; [9]", "result": "81.11% and 116.7%"},
      {"measurement": "fu", "setting": "Protein binding; [10]", "result": 0.184},
      {"measurement": "perc_bound", "setting": "Protein binding; [10]", "result": "90.1% and 81.6%"},
      {"measurement": "perc_free", "setting": "Protein binding; [10]", "result": "9.91% and 18.4%"},
      {"measurement": "perc_recovered", "setting": "Protein binding; [10]", "result": "88.65% and 93.8%"},
      {"measurement": "fu", "setting": "Protein binding; [11]", "result": 0.164},
      {"measurement": "perc_bound", "setting": "Protein binding; [11]", "result": "87.5% and 83.6%"},
      {"measurement": "perc_free", "setting": "Protein binding; [11]", "result": "12.5% and 16.4%"},
      {"measurement": "perc_recovered", "setting": "Protein binding; [11]", "result": "93.33% and 104.0%"},
      {"measurement": "fraction unbound", "setting": "Protein binding; bovine, fetal calf serum, In vitro fetal calf serum protein binding", "result": 0.14},
      {"measurement": "fraction unbound", "setting": "Protein binding; dog, plasma, In vitro dog plasma protein binding", "result": 0.165},
      {"measurement": "fraction unbound", "setting": "Protein binding; human, plasma, In vitro human plasma protein binding", "result": 0.255},
      {"measurement": "fraction unbound", "setting": "Protein binding; mouse, plasma, In vitro mouse plasma protein binding", "result": 0.099},
      {"measurement": "fraction unbound", "setting": "Protein binding; rat, plasma, In vitro rat plasma protein binding", "result": 0.125},
      {"measurement": "t_half", "setting": "[4]", "result": "> 139.0", "unit": "min"},
      {"measurement": "microsomal CLint", "setting": "[4]; liver microsomes", "result": "< 5", "unit": "µL/min/mg"},
      {"measurement": "inhibition at 10 µM", "setting": "ETA (h)", "result": -6, "unit": "%"},
      {"measurement": "clearance (metabolic stability), in words", "setting": "[5]; HLM/MLM", "result": "low clearance"},
      {"measurement": "perc_remaining", "setting": "[5]; [12]", "result": 70.0, "unit": "%"},
      {"measurement": "t_half", "setting": "[5]; [12]", "result": 83.8, "unit": "min"},
      {"measurement": "perc_remaining_no_cofactor", "setting": "[5]; In vitro human liver microsomal stability, no cofactor", "result": 106.0, "unit": "%"},
      {"measurement": "microsomal CLint", "setting": "[5]; liver microsomes, In vitro human liver microsomal stability", "result": 20, "unit": "µL/min/mg"},
      {"measurement": "inhibition at 10 µM", "setting": "V1a (h)", "result": 6, "unit": "%"},
      {"measurement": "inhibition at 10 µM", "setting": "[6]", "result": -1, "unit": "%"},
      {"measurement": "pEC50", "setting": "MERS-CoV; [13]", "result": "< 5.30"},
      {"measurement": "EC90", "setting": "MERS-CoV; [13]", "result": "> 5", "unit": "µM"},
      {"measurement": "perc_max_measured", "setting": "MERS-CoV; Vero E6/TMPRSS2 MERS-CoV antiviral effect with P-gp inhibitor, maximum measured response of dose series", "result": "124.089% and 106.936%"},
      {"measurement": "perc_min_measured", "setting": "MERS-CoV; Vero E6/TMPRSS2 MERS-CoV antiviral effect with P-gp inhibitor, minimum measured response of dose series", "result": "88.282% and 84.091%"},
      {"measurement": "perc_inhibition (% inhibition of the binding of a ligand specific for each target)", "setting": "NMDA", "result": 1, "unit": "%"},
      {"measurement": "perc_inhibition (% inhibition of the binding of a ligand specific for each target)", "setting": "KV channel", "result": 2, "unit": "%"}
    ]}
  ]
}
